Source: patent US7799821B2, “Therapeutic compounds” (Allergan, Inc., priority 2004, dated 2010)
Like-named read-outs stand apart in the source and are kept apart here.

How the values were obtained:
hDP/Gqs5 = molecular target: T1, hDP/Gqs5 (Homo sapiens, UniProt Q13258); test: FLIPR calcium signal, hDP; assay type: cell-based; conditions: read-out: Other Receptors EC50 hDP
T1 construct: expressed in transfected cells; host or cells: HEK-293(EBNA)
T1 sequence (Q13258 1-359): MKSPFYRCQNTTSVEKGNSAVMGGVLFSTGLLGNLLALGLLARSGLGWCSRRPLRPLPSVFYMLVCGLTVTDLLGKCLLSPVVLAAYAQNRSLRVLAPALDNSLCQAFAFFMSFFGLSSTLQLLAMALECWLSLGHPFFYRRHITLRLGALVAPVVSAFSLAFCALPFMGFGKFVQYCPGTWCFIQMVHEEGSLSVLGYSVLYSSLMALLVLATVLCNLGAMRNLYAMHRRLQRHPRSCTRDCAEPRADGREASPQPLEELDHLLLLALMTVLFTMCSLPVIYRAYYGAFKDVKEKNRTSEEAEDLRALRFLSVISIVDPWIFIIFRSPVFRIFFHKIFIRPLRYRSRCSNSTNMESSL
Procedure: HEK-293(EBNA) cells, stably expressing one type or subtype of recombinant human prostaglandin receptors (prostaglandin receptors expressed: hDP/Gqs5; hEP1; hEP2/Gqs5; hEP3A/Gqi5; hEP4/Gqs5; hFP; hIP; hTP), were cultured in 100 mm culture dishes in high-glucose DMEM medium containing 10% fetal bovine serum, 2 mM 1-glutamine, 250 μg/ml geneticin (G418) and 200 μg/ml hygromycin B as selection markers, and 100 units/ml penicillin G, 100 μg/ml streptomycin and 0.25 μg/ml amphotericin B. • (b) Calcium Signal Studies on the FLIPR™
Cells were seeded at a density of 5×10^4 cells per well in Biocoat® Poly-D-lysine-coated black-wall, clear-bottom 96-well plates (Becton-Dickinson) and allowed to attach overnight in an incubator at 37° C. Cells were then washed two times with HBSS-HEPES buffer (Hanks Balanced Salt Solution without bicarbonate and phenol red, 20 mM HEPES, pH 7.4) using a Denley Cellwash plate washer (Labsystems). After 45 minutes of dye-loading in the dark, using the calcium-sensitive dye Fluo-4 AM at a final concentration of 2 μM, plates were washed four times with HBSS-HEPES buffer to remove excess dye leaving 100 μl in each well. Plates were re-equilibrated to 37° C. for a few minutes.
Cells were excited with an Argon laser at 488 nm, and emission was measured through a 510-570 nm bandwidth emission filter (FLIPR™, Molecular Devices, Sunnyvale, Calif.). Drug solution was added in a 50 μl volume to each well to give the desired final concentration. The peak increase in fluorescence intensity was recorded for each well. On each plate, four wells each served as negative (HBSS-HEPES buffer) and positive controls (standard agonists: BW245C (hDP); PGE2 (hEP1; hEP2/Gqs5; hEP3A/Gqi5; hEP4/Gqs5); PGF2α (hFP); carbacyclin (hIP); U-46619 (hTP), depending on receptor). The peak fluorescence change in each drug-containing well was then expressed relative to the controls.
Compounds were tested in a high-throughput (HTS) or concentration-response (CoRe) format. In the HTS format, forty-four compounds per plate were examined in duplicates at a concentration of 10^−5 M. To generate concentration-response curves, four compounds per plate were tested in duplicates in a concentration range between 10^−5 and 10^−11 M. The duplicate values were averaged. In either, HTS or CoRe format each compound was tested on at least 3 separate plates using cells from different passages to give an n≧3.

[1] = molecular target: T2, HEK-EBNA cells expressing a PG EP2 receptor subtype (Homo sapiens, UniProt P43116); test: cAMP assay, EP2; assay type: cell-based
T2 construct: expressed in transfected cells; host or cells: HEK-EBNA
Procedure: A 384-well drug plate was prepared to contain 6 test compounds, PGE2 and cAMP in 16 serial dilutions in triplicate, using a Biomek station. HEK-EBNA cells expressing a target PG receptor subtype (EP2 or EP4) were suspended in a stimulation buffer (HBSS, 0.1% BSA, 0.5 mM IBMX and 5 mM HEPES, pH 7.4) in a density of 10^4 cells/5 μl. The reaction was initiated by mixing 5 μL drug dilutions with 5 μl of HEK-EBNA cells in a well, carried out for 30 min at room temperature, and followed by the addition of 5 μl anti-cAMP acceptor beads in the control buffer with Tween-20 (25 mM NaCl, 0.03% Tween-20, 5 mM HEPES, pH7.4). After 30 min in the dark at room temperature, the mixtures were incubated with 15 μl biotinylated-cAMP/strepavidin donor beads in Lysis/Detection buffer (0.1% BSA, 0.3% Tween-20 and 5 mM HEPES, pH7.4) for 45 min at the room temperature. Fluorescence changes were read using a Fusion-alpha HT microplate reader.

EP4 receptors = molecular target: T3, EP4 receptors (Homo sapiens, UniProt P35408); test: Radioligand binding ([3H]PGE2), EP4
T3 construct: expressed in transfected cells; host or cells: HEK-293
Procedure, shortened: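 Membranes from HEK-293 cells stably expressing the human receptor, resuspended at 1 mg/ml protein in TME buffer pH 7.4. Competition against 5 nM [3H]PGE2 for 60 min at 25 °C, ended by filtration on GF/B filters; non-specific binding defined with 10^−5 M unlabeled PGE2.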

[2] = unit inferred, read-out: EP2 data cAMP EC50
[3] = unit inferred, read-out: EP4 data KI

T3 sequence (P35408 whole entry): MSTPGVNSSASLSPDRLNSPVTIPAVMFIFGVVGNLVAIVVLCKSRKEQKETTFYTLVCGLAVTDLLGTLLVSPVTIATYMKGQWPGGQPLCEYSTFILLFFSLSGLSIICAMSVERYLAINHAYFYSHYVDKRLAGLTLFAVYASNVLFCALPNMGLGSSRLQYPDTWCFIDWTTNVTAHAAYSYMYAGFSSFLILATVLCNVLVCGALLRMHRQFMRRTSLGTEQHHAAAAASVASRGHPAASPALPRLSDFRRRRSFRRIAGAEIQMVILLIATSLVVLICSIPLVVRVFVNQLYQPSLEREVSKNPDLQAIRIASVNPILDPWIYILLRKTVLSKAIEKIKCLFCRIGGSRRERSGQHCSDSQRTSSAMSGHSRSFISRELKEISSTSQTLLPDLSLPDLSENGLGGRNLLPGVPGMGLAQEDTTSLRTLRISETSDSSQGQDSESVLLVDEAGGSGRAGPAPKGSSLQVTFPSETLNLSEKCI
T2 sequence (P43116 whole entry): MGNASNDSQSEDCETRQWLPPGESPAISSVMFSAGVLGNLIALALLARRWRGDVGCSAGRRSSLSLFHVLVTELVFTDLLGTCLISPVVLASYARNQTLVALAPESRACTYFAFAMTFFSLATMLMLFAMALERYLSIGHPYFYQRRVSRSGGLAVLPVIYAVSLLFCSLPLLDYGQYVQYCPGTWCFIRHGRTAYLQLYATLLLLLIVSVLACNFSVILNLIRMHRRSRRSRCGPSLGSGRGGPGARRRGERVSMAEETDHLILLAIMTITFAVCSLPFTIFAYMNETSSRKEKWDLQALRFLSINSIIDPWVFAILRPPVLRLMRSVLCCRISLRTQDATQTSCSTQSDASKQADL

| Compound | EC50 (hDP/Gqs5) [nM] | EC50 [1, 2] [nM] | Ki (EP4 receptors; [3]) [nM] | Ki (EP4 receptors; Table 3, third part, read-out: BINDING-Ki (nM) EP4) [nM] | EC50 ([1]; Table 3, third part, value in parentheses, read-out: EP2 EC50 in a cAMP mediated assay) [nM] |
| --- | --- | --- | --- | --- | --- |
| CC(C)(C)c1ccc(N2C(=O)CC[C@@H]2CCCCCCC(=O)O)cc1 | > 10000 | 548 | > 10000 |  |  |
| CCCCCCC(O)c1ccc(N2C(=O)CC[C@@H]2COCc2ccc(C(=O)O)s2)cc1 (single isomer, unassigned) [drawing 152] | 6830 | 7 |  |  |  |
| CCCCCC(O)c1ccc(N2C(=O)CC[C@@H]2COCc2ccc(C(=O)O)s2)cc1 (single isomer, unassigned) [drawing 148] | 7750 | 5 | > 10000 |  |  |
| CCCCCC(O)c1ccc(N2C(=O)CC[C@@H]2CCCc2ccc(C(=O)O)s2)cc1 (some centres unmarked) [drawing 145] | 1230 | 0.55 | > 10000 |  |  |
| CCCCCC(O)c1ccc(N2C(=O)CC[C@@H]2COCc2ccc(C(=O)O)s2)cc1 (single isomer, unassigned) [drawing 177] | 6800 | 1.5 | 6030 |  |  |
| CCCCCC(C)c1ccc([C@@H]2[C@@H](C/C=C\CCCC(=O)O)[C@H](C#N)C[C@H]2C)cc1 (some centres unmarked) |  |  |  | > 10000 | 4 |
| CCCCCC(O)c1ccc(N2C(=O)CC[C@@H]2CCCc2ccc(C(=O)O)s2)cc1 (single isomer, unassigned) [drawing 180] | 6830 | 7 | 3840 |  |  |
| CCCCCC(O)c1ccc(N2C(=O)CC[C@@H]2CCCc2ccc(C(=O)O)s2)cc1 (some centres unmarked) [drawing 173] | 1230 | 0.55 | > 10000 |  |  |
| CCCCCC(O)c1ccc(N2C(=O)CC[C@@H]2COCc2ccc(C(=O)O)s2)cc1 (single isomer, unassigned) [drawing 176] | 7750 | 5 | > 10000 |  |  |
| CCCCCC(=O)c1ccc(N2C(=O)CC[C@@H]2CCCc2ccc(C(=O)O)s2)cc1 | 7700 | 1.6 | > 10000 |  |  |
| CC(C)(C)c1ccc(N2C(=O)CC[C@@H]2COCc2ccc(C(=O)O)s2)cc1 | 2320 | 51 | > 10000 |  |  |
| CC(C)(C)c1ccc(N2C(=O)CC[C@@H]2COCc2ccc(C(=O)O)o2)cc1 | 1920 | 28 | > 10000 |  |  |

More lines, in order of falling EC50 (hDP/Gqs5), values ahead:

| EC50 (hDP/Gqs5) [nM] | EC50 [1, 2] [nM] | Ki (EP4 receptors; [3]) [nM] | Ki (EP4 receptors; Table 3, third part, read-out: BINDING-Ki (nM) EP4) [nM] | EC50 ([1]; Table 3, third part, value in parentheses, read-out: EP2 EC50 in a cAMP mediated assay) [nM] | Compound |
| --- | --- | --- | --- | --- | --- |
| 812 | 0.19 | > 10000 |  |  | CCCCCC(O)c1ccc(N2C(=O)CC[C@@H]2CCCc2ccc(C(=O)O)s2)cc1 (single isomer, unassigned) [drawing 178] |
| 296 | 0.15 | 4850 |  |  | CCCCCC(O)c1ccc(N2C(=O)CC[C@@H]2CCCc2ccc(C(=O)O)s2)cc1 (single isomer, unassigned) [drawing 179] |
| 296 | 0.15 |  |  |  | CCCCCC(O)c1ccc(N2C(=O)CC[C@@H]2CCCc2ccc(C(=O)O)s2)cc1 (single isomer, unassigned) [drawing 151] |
| 106 | 0.6 |  |  |  | CCCCCCC(O)c1ccc(N2C(=O)CC[C@@H]2CCCc2ccc(C(=O)O)s2)cc1 (single isomer, unassigned) [drawing 156] |
| 106 | 0.6 |  |  |  | CCCCCCC(O)c1ccc(N2C(=O)CC[C@@H]2CCCc2ccc(C(=O)O)s2)cc1 (single isomer, unassigned) [drawing 184] |
| 37 | 1.4 |  |  |  | CCCCCCC(O)c1ccc(N2C(=O)CC[C@@H]2CCCc2ccc(C(=O)O)s2)cc1 (single isomer, unassigned) [drawing 183] |
| 37 | 1.4 |  |  |  | CCCCCCC(O)c1ccc(N2C(=O)CC[C@@H]2CCCc2ccc(C(=O)O)s2)cc1 (single isomer, unassigned) [drawing 155] |
